From BindingDB's records for doi:10.1016/s0960-894x(02)00051-3 (Eli Lilly, 2002)

Biological target: Multidrug resistance-associated protein 1 (ABCC1) (Homo sapiens) (UniProt P33527)
Experiment: In vitro for its inhibitory activity against MRP1-transfected HeLa-T5 cell line in the presence of doxorubicin

Sequence of Multidrug resistance-associated protein 1 (ABCC1) (Homo sapiens) (P33527 whole entry, looked up): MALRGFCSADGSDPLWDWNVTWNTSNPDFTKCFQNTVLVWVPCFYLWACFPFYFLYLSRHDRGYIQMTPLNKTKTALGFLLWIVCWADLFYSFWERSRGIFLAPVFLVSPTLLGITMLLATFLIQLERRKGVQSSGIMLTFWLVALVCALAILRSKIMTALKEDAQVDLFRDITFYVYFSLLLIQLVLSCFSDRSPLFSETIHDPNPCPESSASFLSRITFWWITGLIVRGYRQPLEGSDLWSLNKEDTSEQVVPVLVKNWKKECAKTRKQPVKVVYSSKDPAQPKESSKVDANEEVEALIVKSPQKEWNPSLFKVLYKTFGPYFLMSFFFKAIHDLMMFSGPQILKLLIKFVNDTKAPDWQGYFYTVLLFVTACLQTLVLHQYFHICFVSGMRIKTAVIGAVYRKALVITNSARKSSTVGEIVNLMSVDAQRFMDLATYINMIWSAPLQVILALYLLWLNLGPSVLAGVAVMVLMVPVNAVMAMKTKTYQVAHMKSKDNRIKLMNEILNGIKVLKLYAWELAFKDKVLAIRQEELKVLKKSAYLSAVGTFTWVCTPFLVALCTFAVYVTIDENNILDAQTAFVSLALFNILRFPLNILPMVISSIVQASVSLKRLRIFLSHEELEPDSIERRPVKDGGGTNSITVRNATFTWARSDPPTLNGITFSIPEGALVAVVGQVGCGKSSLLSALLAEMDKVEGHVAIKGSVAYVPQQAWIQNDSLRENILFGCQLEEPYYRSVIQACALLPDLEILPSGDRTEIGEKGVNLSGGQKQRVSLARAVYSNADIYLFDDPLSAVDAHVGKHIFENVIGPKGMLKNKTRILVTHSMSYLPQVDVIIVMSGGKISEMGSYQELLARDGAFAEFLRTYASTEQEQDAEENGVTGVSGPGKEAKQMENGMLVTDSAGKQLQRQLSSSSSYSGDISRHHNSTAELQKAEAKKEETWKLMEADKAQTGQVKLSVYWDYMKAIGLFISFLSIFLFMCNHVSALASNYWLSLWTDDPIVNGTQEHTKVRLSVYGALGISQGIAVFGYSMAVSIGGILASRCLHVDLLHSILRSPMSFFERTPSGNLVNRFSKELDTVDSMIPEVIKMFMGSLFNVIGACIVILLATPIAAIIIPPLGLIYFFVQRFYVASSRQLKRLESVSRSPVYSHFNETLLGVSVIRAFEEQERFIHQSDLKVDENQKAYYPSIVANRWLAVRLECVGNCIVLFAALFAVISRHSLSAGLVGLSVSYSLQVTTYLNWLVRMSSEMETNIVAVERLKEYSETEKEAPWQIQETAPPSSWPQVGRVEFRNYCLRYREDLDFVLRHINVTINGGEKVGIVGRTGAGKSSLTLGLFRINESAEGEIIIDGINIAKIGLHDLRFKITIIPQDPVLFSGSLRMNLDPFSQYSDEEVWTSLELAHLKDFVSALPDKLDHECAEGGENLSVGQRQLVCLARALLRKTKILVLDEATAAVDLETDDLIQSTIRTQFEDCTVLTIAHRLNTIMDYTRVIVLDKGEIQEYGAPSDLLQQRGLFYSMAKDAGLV

| Structure (SMILES) | EC50 |
| --- | --- |
| COc1cc(NC(=O)Cc2cccc(-n3c(=O)c4c(C)onc4c4c(Cl)cccc43)c2)cc(OC)c1 [2-[3-(9-Chloro-3-methyl-4-oxo-4H-isoxazolo[4,3-c]quinolin-5-yl)-phenyl]-N-(3,5-dimethoxy-phenyl)-acetamide] | 2.1 µM |
| COc1cc(CNCc2cccc(-n3c(=O)c4c(C)onc4c4c(Cl)cccc43)c2)cc(OC)c1OC [9-Chloro-3-methyl-5-{3-[(3,4,5-trimethoxy-benzylamino)-methyl]-phenyl}-5H-isoxazolo[4,3-c]quinolin-4-one] | 1.77 µM |
| COc1ccc(NC(=O)Cc2cccc(-n3c(=O)c4c(C)onc4c4c(Cl)cccc43)c2)cc1 [2-[3-(9-Chloro-3-methyl-4-oxo-4H-isoxazolo[4,3-c]quinolin-5-yl)-phenyl]-N-(4-methoxy-phenyl)-acetamide] | > 10 µM |
| Cc1cc(C(=O)N[C@@H]2c3cc(-n4c(=O)c5c(C)onc5c5c(Cl)cccc54)ccc3C[C@H]2O)no1 [5-Methyl-isoxazole-3-carboxylic acid [(1R,2R)-6-(9-chloro-3-methyl-4-oxo-4H-isoxazolo[4,3-c]quinolin-5-yl)-2-hydroxy-indan-1-yl]-amide] | 10 µM |
| COc1cccc(NC(=O)Cc2cccc(-n3c(=O)c4c(C)onc4c4c(Cl)cccc43)c2)c1 [2-[3-(9-Chloro-3-methyl-4-oxo-4H-isoxazolo[4,3-c]quinolin-5-yl)-phenyl]-N-(3-methoxy-phenyl)-acetamide] | 1.8 µM |
| COC(=O)c1ccc(NC(=O)Cc2cccc(-n3c(=O)c4c(C)onc4c4c(Cl)cccc43)c2)cc1 [4-{2-[3-(9-Chloro-3-methyl-4-oxo-4H-isoxazolo[4,3-c]quinolin-5-yl)-phenyl]-acetylamino}-benzoic acid methyl ester] | > 10 µM |
| Cc1onc2c1c(=O)n(-c1cccc(CC(=O)Nc3ccc(S(N)(=O)=O)cc3)c1)c1cccc(Cl)c21 [2-[3-(9-Chloro-3-methyl-4-oxo-4H-isoxazolo[4,3-c]quinolin-5-yl)-phenyl]-N-(4-sulfamoyl-phenyl)-acetamide] | > 10 µM |
| COc1ccc(NC(=O)Cc2cccc(-n3c(=O)c4c(C)onc4c4c(Cl)cccc43)c2)cc1OC [2-[3-(9-Chloro-3-methyl-4-oxo-4H-isoxazolo[4,3-c]quinolin-5-yl)-phenyl]-N-(3,4-dimethoxy-phenyl)-acetamide] | 4.1 µM |
| Cc1onc2c1c(=O)n(-c1cccc(CC(=O)Nc3ccc4c(c3)OCO4)c1)c1cccc(Cl)c21 [N-Benzo[1,3]dioxol-5-yl-2-[3-(9-chloro-3-methyl-4-oxo-4H-isoxazolo[4,3-c]quinolin-5-yl)-phenyl]-acetamide] | 4 µM |
| Cc1cc(C(=O)NCc2cccc(-n3c(=O)c4c(C)onc4c4c(Cl)cccc43)c2)no1 [5-Methyl-isoxazole-3-carboxylic acid 3-(9-chloro-3-methyl-4-oxo-4H-isoxazolo[4,3-c]quinolin-5-yl)-benzylamide] | 7.9 µM |
| Cc1onc2c1c(=O)n(-c1cccc(CC(=O)Nc3ccc(F)cc3)c1)c1cccc(Cl)c21 [2-[3-(9-Chloro-3-methyl-4-oxo-4H-isoxazolo[4,3-c]quinolin-5-yl)-phenyl]-N-(4-fluoro-phenyl)-acetamide] | 3.2 µM |
| COc1cc(N(C)C(=O)Cc2cccc(-n3c(=O)c4c(C)onc4c4c(Cl)cccc43)c2)cc(OC)c1OC [2-[3-(9-Chloro-3-methyl-4-oxo-4H-isoxazolo[4,3-c]quinolin-5-yl)-phenyl]-N-methyl-N-(3,4,5-trimethoxy-phenyl)-acetamide] | 0.64 µM |
| COc1cc(OCCc2cccc(-n3c(=O)c4c(C)onc4c4c(Cl)cccc43)c2)cc(OC)c1OC [9-Chloro-3-methyl-5-{3-[2-(3,4,5-trimethoxy-phenoxy)-ethyl]-phenyl}-5H-isoxazolo[4,3-c]quinolin-4-one] | 1.47 µM |
| Cc1onc2c1c(=O)n(-c1cccc(CC(=O)Nc3ccc(C(C)(C)C)cc3)c1)c1cccc(Cl)c21 [N-(4-tert-Butyl-phenyl)-2-[3-(9-chloro-3-methyl-4-oxo-4H-isoxazolo[4,3-c]quinolin-5-yl)-phenyl]-acetamide] | > 10 µM |
